As usually defined, the inhibition is the relative decrease from the control value, in per cent. By IC50 is commonly meant the concentration at which inhibition is half-maximal. A lower IC50 goes with inhibition by little substance.

Consider 21 compounds from patent publication US20130244999A1, “Substituted Heterocyclic Compounds” (Incyte Corporation, priority 2008, published 2013).

SMILES strings stand for the structures.

The target of the first assay is T1, histamine H4 receptor (Homo sapiens, UniProt Q9H3N8).
T1 construct: expressed in transfected cells; host or cells: HEK293SFM cells (membrane preparation)
T1 sequence (Q9H3N8 whole entry): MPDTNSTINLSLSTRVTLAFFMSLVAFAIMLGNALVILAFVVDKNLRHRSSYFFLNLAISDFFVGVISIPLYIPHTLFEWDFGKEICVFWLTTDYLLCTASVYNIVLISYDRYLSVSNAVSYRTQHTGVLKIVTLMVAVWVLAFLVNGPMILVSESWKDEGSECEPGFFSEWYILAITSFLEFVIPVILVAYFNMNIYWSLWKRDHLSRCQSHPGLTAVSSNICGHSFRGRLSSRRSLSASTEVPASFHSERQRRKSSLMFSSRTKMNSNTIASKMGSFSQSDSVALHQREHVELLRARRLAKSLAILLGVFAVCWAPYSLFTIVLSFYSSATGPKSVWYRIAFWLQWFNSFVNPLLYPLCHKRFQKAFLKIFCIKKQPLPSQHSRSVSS
Nature of the assay: Inhibition of histamine H4 receptor (Table A1; H4 membrane binding assay).
Details: not given
The method in brief:
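Membranes came from recombinant HEK293SFM cells expressing human H4, homogenized in 50 mM Tris-HCl pH 7.5 with protease inhibitors. Nonspecific binding was set with 1000× unlabeled ligand. Bound radioligand was separated on PEI-treated GF/B filters and counted by liquid scintillation.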
The compound `CCNC(=O)c1cccc(-c2ccc3c(c2)CN(c2cc(N4CCN(C)CC4)nc(N)n2)C(C)C3)n1` (single isomer, unassigned) [Example 158, 6-{2-[2-Amino-6-(4-methylpiperazin-1-yl)pyrimidin-4-yl]-3-methyl-1,2,3,4-tetrahydroisoquinolin-7-yl}-N-ethylpyridine-2-carboxamide] showed an inhibition at 1 µM of 70%. Same read-out and setting: the value for `CN1CCN(c2cc(N3CCc4ccc(-c5cnc(N6CCN(C(=O)OC(C)(C)C)CC6)nc5)cc4C3)nc(N)n2)CC1` [Example 8, tert-Butyl 4-(5-{2-[2-amino-6-(4-methylpiperazin-1-yl)pyrimidin-4-yl]-1,2,3,4-tetrahydroisoquinolin-7-yl}pyrimidin-2-yl)piperazine-1-carboxylate] was 35%.

The assay is the same for the next values; noted with them: histamine H4 receptor; "> a" = exceeds experiment limit.
In turn, `CC1Cc2ccc(-c3cnn(CCC(N)=O)c3)cc2CN1c1cc(N2CCN(C)CC2)nc(N)n1` (single isomer, unassigned) [Example 114, 3-(4-{2-[2-Amino-6-(4-methylpiperazin-1-yl)pyrimidin-4-yl]-3-methyl-1,2,3,4-tetrahydroisoquinolin-7-yl}-1H-pyrazol-1-yl)propanamide] showed an IC50 of 34 nM. The compound `CC1Cc2ccc(-c3cnn(C4CCCC4)c3)cc2CN1c1cc(N2CCN(C)CC2)nc(N)n1` (single isomer, unassigned) [Example 115, 4-[7-(1-Cyclopentyl-1H-pyrazol-4-yl)-3-methyl-3,4-dihydroisoquinolin-2(1H)-yl]-6-(4-methylpiperazin-1-yl)pyrimidin-2-amine] yielded a half-inhibitory concentration (IC50) of 40 nM. This IC50 and that of the compound before are within 1.5-fold of each other.

The compound `CC1Cc2ccc(-c3ccc(C(=O)N4CC[C@H](F)C4)nc3)cc2CN1c1cc(N2CCN(C)CC2)nc(N)n1` (single isomer, unassigned) [Example 154A] registered a 50% inhibitory concentration (IC50) of 85 nM. Same read-out and setting: with `CC1Cc2ccc(-c3ccc(C(=O)N4CC[C@H](F)C4)nc3)cc2CN1c1cc(N2CCN(C)CC2)nc(N)n1` (single isomer, unassigned) [Example 154B] the figure was 355 nM; with `CC1Cc2ccc(-c3ccn(Cc4ccccn4)n3)cc2CN1c1cc(N2CCN(C)CC2)nc(N)n1` (single isomer, unassigned) [Example 155, 4-(4-Methylpiperazin-1-yl)-6-[3-methyl-7-[1-(pyridin-2-ylmethyl)-1H-pyrazol-3-yl]-3,4-dihydroisoquinolin-2(1H)-yl]pyrimidin-2-amine], 15.3 nM. The same measure, in the same setting: the value for `CC1Cc2ccc(-c3ccn(Cc4cccnc4)n3)cc2CN1c1cc(N2CCN(C)CC2)nc(N)n1` (single isomer, unassigned) [Example 156, 4-(4-Methylpiperazin-1-yl)-6-[3-methyl-7-[1-(pyridin-3-ylmethyl)-1H-pyrazol-3-yl]-3,4-dihydroisoquinolin-2(1H)-yl]pyrimidin-2-amine] was 8.7 nM; that for `CC1Cc2ccc(-c3ccn(Cc4ccncc4)n3)cc2CN1c1cc(N2CCN(C)CC2)nc(N)n1` (single isomer, unassigned) [Example 157, 4-(4-Methylpiperazin-1-yl)-6-[3-methyl-7-[1-(pyridin-4-ylmethyl)-1H-pyrazol-3-yl]-3,4-dihydroisoquinolin-2(1H)-yl]pyrimidin-2-amine] was 8.7 nM; that for `CC1Cc2ccc(-c3cnn(C)c3)cc2CN1c1cc(N2CCCC(N)C2)nc(N)n1` (stereo in doubt) [Example 119, 4-[(3S)-3-Aminopiperidin-1-yl]-6-[3-methyl-7-(1-methyl-1H-pyrazol-4-yl)-3,4-dihydroisoquinolin-2(1H)-yl]pyrimidin-2-amine] was 91 nM.

With `CN1CCN(c2cc(N3CCc4ccc(Br)cc4C3)nc(N)n2)CC1` [Example 1, 4-(7-Bromo-3,4-dihydroisoquinolin-2(1H)-yl)-6-(4-methylpiperazin-1-yl)pyrimidin-2-amine], the IC50 was found to be 39 nM. For the compound `CNC(=O)c1ccc(-c2ccc3c(c2)CN(c2cc(N4CCN(C)CC4)nc(N)n2)CC3)cn1` [Example 2, 5-{2-[2-Amino-6-(4-methylpiperazin-1-yl)pyrimidin-4-yl]-1,2,3,4-tetrahydroisaquinolin-7-yl}-N-methylpyridine-2-carboxamide], the IC50 was 20 nM. On the same count and under the same terms, the value for `CC(=O)Nc1ccc(-c2ccc3c(c2)CN(c2cc(N4CCN(C)CC4)nc(N)n2)CC3)cn1` [Example 3, N-(5-{2-[2-Amino-6-(4-methylpiperazin-1-yl)pyrimidin-4-yl]-1,2,3,4-tetrahydroisoquinolin-7-yl}pyridin-2-yl)acetamide] was 31 nM; that for `CN1CCN(c2cc(N3CCc4ccc(-c5cnn(C)c5)cc4C3)nc(N)n2)CC1` [Example 4, 4-(4-Methylpiperazin-1-yl)-6-[7-(1-methyl-1H-pyrazol-4-yl)-3,4-dihydroisoquinolin-2(1H)-yl]pyrimidin-2-amine] was 80 nM; that for `CN1CCN(c2cc(-c3ccc4c(c3)CN(c3cc(N5CCN(C)CC5)nc(N)n3)CC4)ccn2)CC1` [Example 5, 4-(4-Methylpiperazin-1-yl)-6-[7-[2-(4-methylpiperazin-1-yl)pyridin-4-yl]-3,4-dihydroisoquinolin-2(1H)-yl]pyrimidin-2-amine] was 128 nM. On the same count and under the same terms, the value for `CN1CCN(c2cc(N3CCc4ccc(-c5cnc(Cl)c(F)c5)cc4C3)nc(N)n2)CC1` [Example 6, 4-[7-(6-Chloro-5-fluoropyridin-3-yl)-3,4-dihydroisoquinolin-2(1H)-yl]-6-(4-methylpiperazin-1-yl)pyrimidin-2-amine] was 61 nM; that for `CN1CCN(c2cc(N3CCc4ccc(-c5cnc(C#N)c(F)c5)cc4C3)nc(N)n2)CC1` [Example 7, 5-{2-[2-Amino-6-(4-methylpiperazin-1-yl)pyrimidin-4-yl]-1,2,3,4-tetrahydroisoquinolin-7-yl}-3-fluoropyridine-2-carbonitrile] was 76 nM.

With `CN1CCN(c2cc(N3CCc4ccc(-c5cnc(N6CCN(C(=O)OC(C)(C)C)CC6)nc5)cc4C3)nc(N)n2)CC1` [Example 8, tert-Butyl 4-(5-{2-[2-amino-6-(4-methylpiperazin-1-yl)pyrimidin-4-yl]-1,2,3,4-tetrahydroisoquinolin-7-yl}pyrimidin-2-yl)piperazine-1-carboxylate], the IC50 was over 1000 nM. On the same count and under the same terms, with `CN1CCN(c2cc(N3CCc4ccc(-c5cnc(N6CCNCC6)nc5)cc4C3)nc(N)n2)CC1` [Example 9, 4-(4-Methylpiperazin-1-yl)-6-[7-(2-piperazin-1-yipyrimidin-5-yl)-3,4-dihydroisoquinolin-2(1H)-yl]pyrimidin-2-amine] the figure was 89 nM; with `CCOc1ccc(Cn2cc(-c3ccc4c(c3)CN(c3cc(N5CCN(C)CC5)nc(N)n3)CC4)cn2)cn1` [Example 10, 4-[7-{1-[(6-Ethoxypyridin-3-yl)methyl]-1H-pyrazol-4-yl}-3,4-dihydroisoquinolin-2(1H)-yl]-6-(4-methylpiperazin-1-yl)pyrimidin-2-amine], 102 nM; with `CN1CCN(c2cc(N3CCc4ccc(-c5cnn(C6(CC#N)CCCC6)c5)cc4C3)nc(N)n2)CC1` [Example 11, [1-(4-{2-[2-Amino-6-(4-methylpiperazin-1-yl)pyrimidin-4-yl]-1,2,3,4-tetrahydroisoquinolin-7-yl}-1,1-pyrazol-1-yl)cyclopentyl]acetonitrile], 110 nM.

On to `CN1CCN(c2cc(N3CCc4ccc(-c5cnn(C6CCN(C(=O)OC(C)(C)C)CC6)c5)cc4C3)nc(N)n2)CC1` [Example 12, tert-Butyl 4-(4-{2-[2-amino-6-(4-methylpiperazin-1-yl)pyrimidin-4-yl]-1,2,3,4-tetrahydroisoquinolin-7-yl}-1H-pyrazol-1-yl)piperidine-1-carboxylate], for which the IC50 stood at 489 nM.
